The values that follow are results of earlier work, collected in patent US20240122962A1, “PHARMACEUTICAL COMPOSITION FOR USE IN THE PREVENTION OR TREATMENT OF A CONDITION ASSOCIATED WITH A REDUCTION IN THE NUMBER OF LACTOBACILLI IN THE VAGINA” (priority 2020, published 2024).

Structures are written as SMILES.

The test system of the data set is bacterial vaginosis (BV). The settings on record: 7-day oral treatment, after 1 month.

In the case of `Cc1ncc([N+](=O)[O-])n1CCO` [Metronidazole, metronidazole], the cure rate is 80-90%.
